Test results: publication PMC5854708, “Grass Carp Prolactin Gene: Structural Characterization and Signal Transduction for PACAP-induced Prolactin Promoter Activity” (Scientific Reports, 2018)
Like-named read-outs stand apart in the source and are kept apart here.

Columns and labels:
[1] = test system: grass carp PRL promoter (pPRL(−1156).Luc) in αT3-1 cells; format: cell-based, grass carp (promoter); rat (αT3-1 cells, as printed); conditions: for effect on Forskolin-induced luciferase activity: Forskolin 100 nM
Description: The cells were then cultured for 18 hr recovery before drug treatment. (A) Time course analysis on the effect of oPACAP38 (6–48 hrs) on grass carp PRL promoter activity in αT3-1 cells. (B) αT3-1 cells over-expressed pPRL(−1156).LUC were treated for 24 hrs with increasing doses of oPACAP38. Effects of PACAP and VIP antagonists on PACAP-induced PRL mRNA expression were also investigated. In these experiments, αT3-1 cells over-expressed pPRL(−1156).LUC were challenged with oPACAP38 (10 nM, 24 hr) in the presence or absence of (C) the PACAP antagonist PACAP6-38 (10 nM) or (D) VIP antagonist (4-Cl-D-Phe6, Leu17)VIP (“VIP-R antagonist”, 100 nM).
After 18 h recovery, the cells were incubated with respective drugs. (A) αT3-1 cells over-expressed pPRL(−1156).LUC were treated for 24 hrs with increasing doses of cpt-cAMP (1–100 μM). (B) αT3-1 cells over-expressed pPRL(−1156).LUC were treated for 24 hrs with increasing doses of Forskolin (10–1000 nM). Effects of cAMP/PKA inhibitors on PACAP-induced PRL mRNA expression were then investigated. αT3-1 cells over-expressed pPRL(−1156).LUC were challenged with oPACAP38 (10 nM, 24 hr) in the presence or absence of (C) AC inhibitor MDL12330A (10 μM) or (D) PKA blocker H89 (10 μM).
After 18 h recovery, the cells were incubated with respective drugs. The cells were treated for 24 hr with increasing doses of (A) Ca^2+ ionophore A23187 or (B) L-type VSCC activator Bay K8644. Inhibiting extracellular Ca^2+ entry on PRL mRNA expression in carp pituitary cells was examined. In this study, αT3-1 cells over-expressed pPRL(−1156).LUC were treated with (C) oPACAP38 (10 nM, 24 hrs) or (D) Forskolin (100 nM, 24 hrs) in the Ca^2+-free medium (with different doses of EGTA).
After 18 h recovery, the cells were incubated with respective drugs.

PRL gene transcription = test system: PRL gene transcription; set-up: method as in PMID 18006630, PMID 18022314; conditions: human; cited from earlier work
From the text: (§1) Prolactin (PRL) is a pituitary hormone with diverse function. […] In mammals, transcription of PRL gene is regulated by multiple factors. […] Furthermore, sex steroid ...

PRL promoter = test system: PRL promoter; set-up: method as in 2 sources, one per row (each row's own in cited_ref): ref 2 = [2]; PMID 15731170; doi:10.1210/me.2004-0111; 2. Liu, J. C., Baker, R. E., Chow, W., Sun, C. K. & Elsholtz, H. P. Epigenetic mechanisms in the dopamine D2 receptor-dependent inhibition of the prolactin gene. Mol Endocrinol 19 , 1904–1917, doi:10. ||| ref 3 = [3]; PMID 1922085; doi:10.1210/mend-5-4-535; 3. Yan GZ Pan WT Bancroft C Thyrotropin-releasing hormone action on the prolactin promoter is mediated by the POU protein pit-1 Mol Endocrinol 1991 5 535 541 10.1210/mend-5-4-535 1922085; conditions: mammals, cited from earlier work
From the text: as §1

[2] = test system: PRL promoter / PRL transcript; set-up: method as in PMID 17904137; conditions: goldfish; cited from earlier work
From the text: as §1

PAC1 receptors = conditions: cited from earlier work
From the text: (§2) PACAP and vasoactive intestinal peptide (VIP) are members of the glucagon/secretin peptide family and have been reported to play roles in PRL regulation. […] In contrast to VIP, the biological actions of PACAP on ...

[3] = test system: PRL gene expression in GH4C1 cells; conditions: cited from earlier work
From the text: as §2

[4] = test system: PRL secretion / PRL gene expression; conditions: mammals, cited from earlier work
From the text: as §2

[5] = 24 hr, MDL12330A 10 μM or H89 10 μM, n = 4
[6] = oPACAP38 10 nM, 24 hr, MDL12330A 10 μM or H89 10 μM, n = 4
[7] = U0126, PD169316 or SP600125, each 10 μM, n = 4
[8] = U0126, PD169316 or SP600125, each 10 μM, oPACAP38 10 nM, 24 hrs, n = 4
[9] = W7 30 μM or W13 100 μM, pre-treated 15 mins, PACAP 100 nM (Supplementary Fig. 4), 24 hours, n = 4
[10] = calmidazolium 1 μM, W7 30 μM, W13 100 μM or KN62 5 μM, n = 4
[11] = 24-hr, A23187 1–100 nM or Bay K8644 1–100 nM, n = 4
[12] = calmidazolium 1 μM or KN62 5 μM, oPACAP38 10 nM, 24 hrs, n = 4
[13] = LY294002 10 μM or Wortmannin 10 nM, n = 4

Compound: NCCOB(c1ccccc1)c1ccccc1 [2-APB, 2-aminoethoxydiphenyl borate]
- effect on PACAP-stimulated luciferase activity [1]: effectively abolished

Compound: COC(=O)C1=C(C)NC(C)=C(C(=O)OC)C1c1ccccc1[N+](=O)[O-] [nifedipine]
- effect on Forskolin-induced luciferase activity ([1]; nifedipine 10 μM, 24 hrs, n = 4): effective in attenuating
- effect on PACAP-induced luciferase activity ([1]; nifedipine 10 μM, oPACAP38 10 nM, 24 hrs, n = 4): effective in attenuating

Compound: O=S(=O)(NCCNC/C=C/c1ccc(Br)cc1)c1cccc2cnccc12 [H89]
- effect on basal luciferase activity [1, 5]: markedly suppressed
- effect on oPACAP38-induced luciferase activity [1, 6]: totally abolished

Compound: Nc1ncnc2c1nc(Sc1ccc(Cl)cc1)n2C1OC2COP(=O)(O)OC2C1O (centres unmarked) [cpt-cAMP, 8-(4-chlorophenylthio)-cAMP]
- effect on luciferase activity expression ([1]; 24 hrs, cpt-cAMP 1–100 μM, n = 4): dose-dependently increased

Compound: C=C[C@@]1(C)CC(=O)[C@]2(O)[C@@]3(C)[C@@H](O)CCC(C)(C)[C@@H]3[C@H](O)[C@H](OC(C)=O)[C@@]2(C)O1 [Forskolin]
- effect on luciferase activity expression ([1]; 24 hrs, Forskolin 10–1000 nM, n = 4): dose-dependently increased

Compound: CCCCCCCCCCCCCCCCCCOCC(COP(=O)([O-])OCC[N+](C)(C)C)OC (centres unmarked) [Edelfosine]
- effect on PACAP-stimulated luciferase activity ([1]; Edelfosine 20 μM or 2-APB 100 μM, oPACAP38 10 nM, 24 hrs, n = 4): effectively abolished

Compound: CN(C)CCCn1cc(C2=C(c3c[nH]c4ccccc34)C(=O)NC2=O)c2ccccc21 [GF109203]
- effect on PACAP-induced luciferase activity ([1]; GF109203 1 μM, oPACAP38 10 nM, 24 hrs, n = 4): not effective in altering PACAP induction

Compound: COc1ccc2c(c1)CC[C@@H]1[C@@H]2CC[C@]2(C)[C@@H](NCCCCCCN3C(=O)C=CC3=O)CC[C@@H]12 [U73122]
- effect on PACAP-stimulated luciferase activity ([1]; U73122 10 μM, pre-treated 15 mins, PACAP 100 nM (Supplementary Fig. 4), 24 hours, n = 4): effectively abolished

Compound: estrogen
- effect on PRL gene transcription (PRL gene transcription): potent stimulator for PRL gene transcription

Compound: CO[C@H]1C[C@@H]2CC[C@@H](C)[C@@](O)(O2)C(=O)C(=O)N2CCCC[C@H]2C(=O)O[C@H]([C@H](C)C[C@@H]2CC[C@@H](O)[C@H](OC)C2)CC(=O)[C@H](C)/C=C(\C)[C@@H](O)[C@@H](OC)C(=O)[C@H](C)C[C@H](C)/C=C/C=C/C=C/1C [rapamycin]
- effect on PACAP-induced luciferase activity ([1]; rapamycin 20 nM, oPACAP38 10 nM, 24 hrs, n = 4): attenuated

Compound: N#CC(=C(/N)Sc1ccccc1N)/C(C#N)=C(/N)Sc1ccccc1N [U0126]
- effect on basal luciferase activity [1, 7]: not affected
- effect on PACAP-induced luciferase activity [1, 8]: not affected

Compound: PACAP6–38
- effect on oPACAP38-induced PRL promoter activity ([1]; oPACAP38 10 nM, 24 hr, antagonist PACAP6–38 100 nM (text; legend: 10 nM), n = 4): blocked

Compound: O=C(O)CN(CCOCCOCCN(CC(=O)O)CC(=O)O)CC(=O)O [EGTA]
- effect on Forskolin-induced luciferase activity ([1]; EGTA 1–4 mM, Ca^2+-free medium, 24 hrs, n = 4): suppressed dose-dependently
- effect on PACAP-induced luciferase activity ([1]; EGTA 1–4 mM, Ca^2+-free medium, oPACAP38 10 nM, 24 hrs, n = 4): suppressed dose-dependently

Compound: NCCCCNS(=O)(=O)c1ccc2c(Cl)cccc2c1 [W13]
- effect on PACAP-stimulated luciferase activity [1, 9]: suppressed/totally inhibited
- effect on basal luciferase activity [1, 10]: suppressed/totally inhibited

Compound: CNc1ccc2oc(C[C@H]3O[C@@]4(CC[C@H]3C)O[C@H]([C@H](C)C(=O)c3ccc[nH]3)[C@H](C)C[C@H]4C)nc2c1C(=O)O [A23187]
- effect on luciferase activity expression [1, 11]: effective in stimulating luciferase activity expression

Compound: COC(=O)C1=C(C)NC(C)=C([N+](=O)[O-])C1c1ccccc1C(F)(F)F (centres unmarked) [Bay K8644]
- effect on luciferase activity expression [1, 11]: effective in stimulating luciferase activity expression

Compound: thyrotropin-releasing hormone [TRH]
- effect on PRL promoter (PRL promoter; via pit-1 transactivation): stimulate PRL promoter
- effect on PRL promoter activity [2]: suppressed
- effect on PRL transcript expression [2]: suppressed

Compound: Cl.c1ccc(C2CCCC2NC2=NCCCCCCCCCCC2)cc1 (centres unmarked) [MDL12330A]
- effect on basal luciferase activity [1, 5]: markedly suppressed
- effect on oPACAP38-induced luciferase activity [1, 6]: totally abolished

Compound: NCCc1ccc(O)c(O)c1 [Dopamine]
- effect on PRL promoter activity (PRL promoter; via dopamine D2 receptor activation): inhibitory effect on PRL promoter activity
- effect on PRL promoter activity [2]: inhibition of PRL promoter activity

Compound: CN([C@@H](Cc1ccc(OS(=O)(=O)c2cccc3cnccc23)cc1)C(=O)N1CCN(c2ccccc2)CC1)S(=O)(=O)c1cccc2cnccc12 [KN62]
- effect on PACAP-stimulated luciferase activity [1, 12]: suppressed/totally inhibited
- effect on basal luciferase activity [1, 10]: suppressed/totally inhibited

Compound: Oc1c2ccccc2c2c3c(cccc13)N=N2 [SP600125]
- effect on basal luciferase activity [1, 7]: not affected
- effect on PACAP-induced luciferase activity [1, 8]: not affected

Compound: Clc1ccc(C(c2ccc(Cl)cc2)n2cc[n+](CC(OCc3ccc(Cl)cc3Cl)c3ccc(Cl)cc3Cl)c2)cc1 (centres unmarked) [calmidazolium]
- effect on PACAP-stimulated luciferase activity [1, 12]: suppressed/totally inhibited
- effect on basal luciferase activity [1, 10]: suppressed/totally inhibited

Compound: NCCCCCCNS(=O)(=O)c1cccc2c(Cl)cccc12 [W7]
- effect on PACAP-stimulated luciferase activity [1, 9]: suppressed/totally inhibited
- effect on basal luciferase activity [1, 10]: suppressed/totally inhibited

Compound: COC[C@H]1OC(=O)c2coc3c2[C@@]1(C)C1=C(C3=O)[C@@H]2CCC(=O)[C@@]2(C)C[C@H]1OC(C)=O [Wortmanin]
- effect on basal luciferase activity [1, 13]: effective in reducing
- effect on PACAP-induced luciferase activity ([1]; Wortmannin 10 nM, oPACAP38 10 nM, 24 hrs, n = 4): effective in reducing

Compound: O=c1cc(N2CCOCC2)oc2c(-c3ccccc3)cccc12 [LY294002]
- effect on basal luciferase activity [1, 13]: effective in reducing
- effect on PACAP-induced luciferase activity ([1]; LY294002 10 μM, pre-treated 15 mins, PACAP 100 nM (Supplementary Fig. 4), 24 hours, n = 4): effective in reducing

Compound: vasoactive intestinal peptide [VIP]
- affinity/specificity at PAC1 receptors (PAC1 receptors): little/very low affinity
- effect on PRL gene expression [3]: stimulatory effects
- effect on PRL secretion ([4]; ref 8): stimulatory effects
- effect on PRL gene expression ([4]; ref 9): stimulatory effects
